Reference: publication PMC5372468, “Quantitative analysis of molecular partition towards lipid membranes using surface plasmon resonance” (Scientific Reports, 2017)
“And” between values parts separate entries of the source, which are not always exact repeats. Equal entries are not always repeated. Where two headings read alike, the source gives them in different places.

Legend:
[1] = data previously obtained; ref [25]; cited from earlier work
Excerpt: If only Kp is desired, a simplified version of the steady-state model (equation (S23)) can be applied to the linear region in each partition plot (Fig. 2, right panel insets). We applied the steady-state model in full to determine σ for each molecule in addition to Kp. […] The σ of ENF and KTP were, respectively, 50 and 69.

[2] = partition constant towards POPC membranes, fluorescence spectroscopy, 100 nm-diameter LUV, ±SD, cited from earlier work
[3] = SPR membrane partition on L1 sensor chip, deposited POPC SUV (steady-state and dissociation models); format: physicochemical; conditions: 10 mM HEPES, 150 mM NaCl, pH 7.4, 25 °C; for Kp (Steady-state Model) / σ (molar lipid:solute ratio at membrane saturation, Steady-state Model): SPR Biacore X100, L1 chip, association 200 s at 5 μL/min, ±SD, three independent replicates; for Kp (Steady-state Model): POPC SUV (50 nm extrusion), 0.25-700 μM solute, equation (S22) fitted to RUS/RUL vs [S]W, full concentration range; for σ (molar lipid:solute ratio at membrane saturation, Steady-state Model) / Kp (linear partition model, equation (S23)): POPC SUV; for σ (molar lipid:solute ratio at membrane saturation, Steady-state Model): equation (S22); for Kp (linear partition model, equation (S23)): SPR, L1 chip, equation (S23) fitted to the low-concentration linear region only
Description: Lyophilized ENF and KTP were solubilized in 10 mM HEPES, 150 mM NaCl, pH 7.4 buffer to a 1 mg/mL stock solution concentration. Purified F63 stock solutions (~1 mg/mL) were prepared in the same buffer. Lyophilized HRC4 was first solubilized in DMSO to 40 mg/mL, then diluted in 10 mM HEPES, 150 mM NaCl, pH 7.4 buffer for the experiments. The final DMSO content was maintained at 2% (v/v) in all HRC4 experiments. ENF, KTP and HRC4 stock solutions were sonicated in an ultrasonic bath for a 10 min period.
Small unilamellar vesicles (SUV) suspensions were prepared as described before. Briefly, the lipid mixture was dissolved in chloroform in a round bottom flask. Chloroform was evaporated under a constant nitrogen flow. The resulting lipid film was dried in vacuum, overnight. A multilamellar vesicle suspension (MLV) was obtained after lipid film rehydration with 10 mM HEPES, 150 mM NaCl, pH 7.4 buffer and a series of 10 freeze/thaw cycles. MLV suspensions were extruded through a 50 nm track-etched polycarbonate membrane from Whatman/GE Healthcare (Maidstone, United Kingdom). Extrusion was performed in a LiposoFast-Basic plus Stabilizer setup from Avestin (Mannheim, Germany). POPC, POPC:Chol (2:1), POPC:Chol:SM […] and POPC:DPPC (1:1) mixtures were prepared. SUV hydrodynamic diameter (DH) and sample polydispersity were characterized through dynamic light scattering (DLS, Supplementary Fig. S1).
SPR experiments were carried out in a Biacore X100 apparatus from GE Healthcare. Temperature was set at 25 °C for all experiments. A 10 mM HEPES, 150 mM NaCl, pH 7.4 solution was used as running buffer for F63, ENF and KTP experiments. Alternatively, 10 mM HEPES, 150 mM NaCl, pH 7.4 containing 2% (v/v) DMSO was used for HRC4 experiments. The flow system was primed three times before initiating an experiment. The L1 sensor chip was used in all experiments. The sensor chip surface was rinsed with three injections of 20 mM CHAPS before SUV deposition. 1 mM lipid SUV samples were injected over the L1 sensor chip for 2400 s, at a 2 μL/min flow speed. Typical RU values for POPC, POPC:Chol (2:1), and POPC:Chol:SM (1:1:1) SUV depositions were ~8000, ~10000 and ~10500, respectively. Loose vesicles were removed with a 36 s injection of 10 mM NaOH at 50 μL/min. F63, ENF and KTP at defined concentrations (between 0.25 and 700 μM) were injected over pre-formed lipid vesicle-coated surfaces at 5 μL/min, for a total of 200 s (association phase). Samples were also injected at 30 μL/min to confirm the absence of mass transfer effects. Solutes were allowed to dissociate for 800 s. L1 sensor chip surface regeneration was performed with sequential injections of 20 mM CHAPS (5 μL/min for 60 s), 0.5% (w/v) SDS (5 μL/min for 60 s), 10 mM NaOH containing 20% (v/v) methanol (50 μL/min for 36 s) and 10 mM NaOH (50 μL/min for 36 s). Baseline response values were compared before and after each experiment to evaluate the effectiveness of the surface regeneration.
Raw SPR sensorgram data were collected for both lipid deposition and solute binding. SUV deposition response values were collected from sensorgrams upon reaching a stable response. For each studied molecule, association steady-state response values were collected from individual sensorgrams at t = 200 s. Dissociation response data were collected between 200 and 1000 s of each sensorgram.
The steady-state model is a mathematical approach to rigorously quantify solute membrane partition using current SPR lipid bilayer-solute association response data. The partition formalism of equation (S22), can be directly fitted to RUS/RUL vs [S]W data sets to retrieve Kp and σ values. While σ values are very important for specific applications (membrane-targeting antibiotics, for instance[25]), Kp is a fundamental membrane interaction parameter studied for both endogenous and therapeutic molecules. […]

## omiganan
[1]
  σ (lipid:solute ratio at membrane saturation): 66

## Enfuvirtide
[2]; ref [26]
  Kp (Literature): 3.20 × 10^3 and 3.20 (±0.20) × 10^3
[3]
  Kp (Steady-state Model): 6.41 × 10^3 and 6.41 (±0.50) × 10^3
  σ (molar lipid:solute ratio at membrane saturation, Steady-state Model): ~50 and 50 and 50.4 (±2.0)
  Kp (linear partition model, equation (S23)): 5.29 × 10^3

## N=C(N)NCCC[C@H](NC(=O)[C@@H](N)Cc1ccc(O)cc1)C(=O)O [KTP, kyotorphin]
[2]; ref [27]
  Kp (Literature): 0.66 × 10^3 and 0.66 (±0.23) × 10^3
[3]
  Kp (Steady-state Model): 0.10 × 10^3 and 0.10 (±0.01) × 10^3
  σ (molar lipid:solute ratio at membrane saturation, Steady-state Model): ~69 and 69 and 69.0 (±6.3)
  Kp (linear partition model, equation (S23)): 0.06 × 10^3
